Experimental data as given in the supplement of paper PMC13207355.

Legend:
Details in all cases: exposure time: 72 h
[1] = test system: E28 (patient-derived glioblastoma stem cells of classical subtype); experiment: surviving fraction (nuclei count normalised to DMSO); higher = more cells surviving (less toxic)
[2] = test system: E57 (patient-derived glioblastoma stem cells of mesenchymal subtype); experiment: as above
[3] = test system: FT3469 (normal neural stem cell line); experiment: as above
[4] = test system: E34 (patient-derived glioblastoma stem cells of proneural subtype); experiment: as above
[5] = test system: E13 (patient-derived glioblastoma stem cells of classical subtype); experiment: as above
[6] = test system: E21 (patient-derived glioblastoma stem cells of mesenchymal subtype); experiment: as above
[7] = test system: E31 (patient-derived glioblastoma stem cells of proneural subtype); experiment: as above
[8] = test system: E28; experiment: phenotypic distance (Euclidean, principal components) from DMSO controls (arbitrary units); higher = stronger morphological change
[9] = test system: E57; experiment: as above
[10] = test system: FT3469; experiment: as above
[11] = test system: E34; experiment: as above
[12] = test system: E13; experiment: as above
[13] = test system: E21; experiment: as above
[14] = test system: E31; experiment: as above
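For phenotypic distance (Euclidean, principal components) from DMSO controls in this document: cell Painting imaging in 384-well plates, CellProfiler features reduced to at least 20 principal components, Euclidean distance versus same-plate DMSO vehicle wells (0.1% v/v), median over six images per well.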
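For surviving fraction (nuclei count normalised to DMSO) in this document: nuclei counted by high-content imaging of Hoechst-stained cells in laminin-coated 384-well plates, relative to 0.1% DMSO vehicle wells, with staurosporine as cell-death control.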

CCCCCCCCCCCCCC(=O)O[C@@H]1[C@@H](C)[C@@]2(O)[C@@H](C=C(CO)C[C@]3(O)C(=O)C(C)=C[C@@H]23)[C@@H]2C(C)(C)[C@]12OC(C)=O [Phorbol 12-myristate 13-acetate]
Details	phenotypic distance	surviving fraction
[1], 4.1 nM	–	0.75
[1], 12.3 nM	–	0.65
[1], 37 nM	–	0.725
[1], 111.1 nM	–	0.795
[1], 333.3 nM	–	0.815
[1], 1000 nM	–	0.668
[1], 3000 nM	–	0.383
[2], 4.1 nM	–	0.331
[2], 12.3 nM	–	0.32
[2], 37 nM	–	0.374
[2], 111.1 nM	–	0.233
[2], 333.3 nM	–	0.369
[2], 1000 nM	–	0.367
[2], 3000 nM	–	0.108
[3], 4.1 nM	–	0.75
[3], 12.3 nM	–	0.728
[3], 37 nM	–	0.729
[3], 111.1 nM	–	0.701
[3], 333.3 nM	–	0.832
[3], 1000 nM	–	0.791
[3], 3000 nM	–	0.571
[4], 4.1 nM	–	0.524
[4], 12.3 nM	–	0.516
[4], 37 nM	–	0.618
[4], 111.1 nM	–	0.488
[4], 333.3 nM	–	0.688
[4], 1000 nM	–	0.48
[4], 3000 nM	–	0.478
[5], 4.1 nM	–	0.681
[5], 12.3 nM	–	0.64
[5], 37 nM	–	0.728
[5], 111.1 nM	–	0.596
[5], 333.3 nM	–	0.708
[5], 1000 nM	–	0.576
[5], 3000 nM	–	0.47
[6], 4.1 nM	–	0.677
[6], 12.3 nM	–	0.88
[6], 37 nM	–	0.786
[6], 111.1 nM	–	0.68
[6], 333.3 nM	–	0.75
[6], 1000 nM	–	0.775
[6], 3000 nM	–	0.0234
[7], 4.1 nM	–	1.07
[7], 12.3 nM	–	1.06
[7], 37 nM	–	1.23
[7], 111.1 nM	–	1.01
[7], 333.3 nM	–	1.07
[7], 1000 nM	–	0.994
[7], 3000 nM	–	0.0149
[8], 4.1 nM	2.11	–
[8], 12.3 nM	1.89	–
[8], 37 nM	1.72	–
[8], 111.1 nM	1.44	–
[8], 333.3 nM	1.52	–
[8], 1000 nM	1.21	–
[8], 3000 nM	4.49	–
[9], 4.1 nM	7.04	–
[9], 12.3 nM	6.41	–
[9], 37 nM	5.79	–
[9], 111.1 nM	8.21	–
[9], 333.3 nM	6.38	–
[9], 1000 nM	6.18	–
[9], 3000 nM	11.1	–
[10], 4.1 nM	3.13	–
[10], 12.3 nM	2.56	–
[10], 37 nM	3.38	–
[10], 111.1 nM	2.45	–
[10], 333.3 nM	1.86	–
[10], 1000 nM	2.16	–
[10], 3000 nM	4.11	–
[11], 4.1 nM	4.26	–
[11], 12.3 nM	4.21	–
[11], 37 nM	3.53	–
[11], 111.1 nM	3.9	–
[11], 333.3 nM	2.78	–
[11], 1000 nM	2.96	–
[11], 3000 nM	4.34	–
[12], 4.1 nM	2.62	–
[12], 12.3 nM	2.5	–
[12], 37 nM	2.61	–
[12], 111.1 nM	2.82	–
[12], 333.3 nM	1.86	–
[12], 1000 nM	2.26	–
[12], 3000 nM	2.58	–
[13], 4.1 nM	2.4	–
[13], 12.3 nM	2.57	–
[13], 37 nM	2.24	–
[13], 111.1 nM	2.1	–
[13], 333.3 nM	2.01	–
[13], 1000 nM	1.76	–
[13], 3000 nM	6.77	–
[14], 4.1 nM	3.22	–
[14], 12.3 nM	3.36	–
[14], 37 nM	2.74	–
[14], 111.1 nM	1.67	–
[14], 333.3 nM	1.98	–
[14], 1000 nM	1.94	–
[14], 3000 nM	6.13	–
